The record followed here is patent US20210196685A1, “COMPOSITION FOR ERADICATING HELICOBACTER PYLORI” (HK INNO.N CORPORATION, priority 2018, published 2021).

The nature of data set [1]: Clinical Study 1, Cohort 1: pharmacokinetic interaction of multiple-dose tegoprazan and amoxicillin/clarithromycin. It is filed as in vivo, human. To be noted: for change of AUC on administering the three formulations in combination (in words) / change of Cmax on administering the three formulations in combination (in words): tegoprazan + amoxicillin + clarithromycin in combination. On the procedure:
To evaluate pharmacokinetic interaction of multiple-dose administration of single and combination of tegoprazan and amoxicillin/clarithromycin, a clinical study was designed in accordance with a randomized, open-label, and multiple-dose design.
A total of 24 subjects who had been determined eligible to participate in the study were randomly assigned in a 1:1 ratio to each one of the two groups. Each randomly-assigned group was administered with investigational medical products as arranged during each intervention period and underwent a clinical study as designed. In consideration of the half-life of each product, a 14-day wash-out period was given between the intervention periods.
A total of 24 subjects were divided into group 1 and group 2. During the first intervention period, subjects of group 1 (12 person) were repeatedly administered with 100 mg of tegoprazan twice a day for four days and administered once a day on the fifth day on which a pharmacokinetic clinical study was conducted. During the second intervention period after a 14-day wash-out period, they were repeatedly administered with 1000 mg of amoxicillin and 500 mg of clarithromycin twice a day for four days and administered once a day on the fifth day. During the third intervention period after a 14-day wash-out period, they were repeatedly administered with 100 mg of tegoprazan, 1000 mg of amoxicillin, and 500 mg of clarithromycin twice a day for six days and administered once a day on the seventh day. Following the last dose of each intervention period, pharmacokinetic blood samples were collected for 17 times over 72 hours in the first period, 14 times over 48 hours in the second period, and 19 times over 120 hours in the third period.
Drugs were administered to subjects of group 2 (12 person) in the reverse order to the way the study was conducted on group 1 in the first and second intervention periods and in the same order in the third intervention period. Pharmacokinetic blood samples were collected in the same manner as group 1.
The average plasma concentrations of tegoprazan, clarithromycin, and amoxicillin were measured and time-based plasma concentration and time-based drug concentration patterns were observed when tegoprazan was repeatedly administered alone, amoxicillin/clarithromycin were repeatedly administered and tegoprazan, amoxicillin, and clarithromycin were repeatedly administered in combination.
Pharmacokinetics of tegoprazan, amoxicillin, and clarithromycin were evaluated. Descriptive statistics of pharmacokinetic evaluation parameters were presented. Point estimates for geometric mean ratio between each group and 90% confidence interval were calculated from the log-converted primary pharmacokinetic evaluation parameters by using a linear mixed effect model.

Data set [2] can be described thus: Clinical Study 1, Cohort 2: 24-hour intragastric pH on repeated co-administration with amoxicillin/clarithromycin. The class given is in vivo, human. From the text: To identify an effect of eradicating Helicobacter pylori in the present invention, a clinical study was designed in accordance with a randomized, open-label, active-controlled, parallel and multiple-dose design. A total of 221 patients were subjected to screening for this study. Out of them, 36 patients were registered thereto and the completed clinical results were obtained from 34 patients.
Particularly, the 36 patients above were divided into three patient groups (T1, T2 and R) and the clinical study was performed accordingly. […]
The T1 group was repeatedly given 50 mg of CJ-12420 and 1000 mg of amoxicillin/500 mg of clarithromycin twice a day for seven days; the T2 group was repeatedly given 100 mg of CJ-12420 and 1000 mg of amoxicillin/500 mg of clarithromycin twice a day for seven days; and the R group was repeatedly given 40 mg of pantoprazole and 1000 mg of amoxicillin/500 mg of clarithromycin twice a day for seven days. An intragastric pH was measured from all the subjects on Day 1 for 24 hours, and the intragastric pH was also measured for 24 hours on Day 1 and Day 7 of repeated administration. Also, a negative conversion rate was calculated upon a follow-up visit paid by subjects who were identified to be H. pylori positive on the UBT test during screening, and stability evaluation was performed according to a predetermined schedule. […]

Where [3] appears, read: tegoprazan 100 mg twice a day, with amoxicillin 1000 mg/clarithromycin 500 mg versus alone.

“Also recorded” adds a separate entry of the source.

`Cc1nc2c(OC3CCOc4cc(F)cc(F)c43)cc(C(=O)N(C)C)cc2[nH]1` (stereo not shown) [Tegoprazan, 4-[(5,7-difluoro-3,4-dihydro-2H-chromene-4-yl)oxy]-N,N,2-trimethyl-1H-benzimidazole-6-carboxamide]: in data set [1] (setting [3]), the “increase of AUC when administered in combination with amoxicillin/clarithromycin” value is recorded as 2.70 times and the “increase of Cmax when administered in combination with amoxicillin/clarithromycin” value was found to be 2.24 times. Also, in data set [1], the “change of AUC on administering the three formulations in combination (in words)” value was “increased” and the “change of Cmax on administering the three formulations in combination (in words)” value was “increased”. Further, the “speed of intragastric pH increase (to 6 or more) right after the administration” value in data set [2] was “two hours or less”.

Turning to `CC[C@H]1OC(=O)[C@H](C)[C@@H](O[C@H]2C[C@@](C)(OC)[C@@H](O)[C@H](C)O2)[C@H](C)[C@@H](O[C@@H]2O[C@H](C)C[C@H](N(C)C)[C@H]2O)[C@](C)(OC)C[C@@H](C)C(=O)[C@H](C)[C@@H](O)[C@]1(C)O` [clarithromycin, (3R,4S,5S,6R,7R,9R,11R,12R,13S,14R)-6-[(2S,3R,4S,6R)-4-(dimethylamino)-3-hydroxy-6-methyloxane-2-yl]oxy-14-ethyl-12,13-dihydroxy-4-[(2R,4R,5S,6S)-5-hydroxy-4-methoxy-4,6-dimethyloxane-2-yl]oxy-7-methoxy-3,5,7,9,11,13-hexamethyl-oxacyclotetradecane-2,10-dione, reference compound], in data set [1], the “change of AUC on administering the three formulations in combination (in words)” value is “tendency to increase; also recorded: increased” and the “change of Cmax on administering the three formulations in combination (in words)” value is given as “tendency to increase; also recorded: increased”.
